{"source": "patent US7038049B2", "about": "“Haloanilino quinazolines and therapeutic use thereof” (Parker Hughes Institute, priority 1999, dated 2006)", "key": {"[1]": {"test_system": "NALM-6 human leukemia cells", "experiment": "MTT cytotoxicity assay, NALM-6", "format": "cell-based", "conditions": "Homo sapiens, NALM-6, Table 4, OH substituted, 24–36 hours", "experimental": "(§1) The cytotoxicity assay of various compounds against human tumor cell lines was performed using the MTT (3-[4,5-dimethylthiazol-2-yl]-2,5-diphenyl tetrazolium bromide) assay (Boehringer Mannheim Corp., Indianapolis, Ind.). Briefly, exponentially growing tumor cells were seeded into a 96-well plate at a density of 2.5×10^4 cells/well and incubated for 36 hours at 37° C. prior to drug exposure. On the day of treatment, culture medium was carefully aspirated from the wells and replaced with fresh medium containing the quinazoline compounds at concentrations ranging from 0.1 to 250 μM. Triplicate wells were used for each treatment.\n(§2) Human cell lines were obtained from American Type Culture Collection (Rockville, Md.) and maintained as a continuous cell line in Dulbecco's modified Eagles' medium supplemented with 10% fetal bovine serum and antibiotics. Cells used in this study include human leukemia cells (NALM-6 and MOLT-3), human breast cancer cells ([…]), human prostate cancer cells (PC3), and human brain tumor cells (U373).\n(§3) The cells were incubated with the various compounds for 24–36 hours at 37° C. in a humidified 5% CO2 atmosphere. To each well, 10 μl of MTT (0.5 mg/ml final concentration) was added and the plates were incubated at 37° C. for 4 hours to allow MTT to form formazan crystals by reacting with metabolically active cells. The formazan crystals were solubilized overnight at 37° C. in a solution containing 10% SDS in 0.01 M HCl. The absorbance of each well was measured in a microplate reader (Labsystems) at 540 nm and a reference wavelength of 690 nm. To translate the OD 540 values into the number of live cells in each well, the OD 540 values were compared to those on standard OD 540—versus—cell number curves generated for each cell line. The percent survival was calculated using the formula:\n(§4) [formula] The IC50 values were calculated by non-linear regression analysis. Detection of Apoptosis"}, "[2]": {"test_system": "MOLT-3 human leukemia cells", "experiment": "MTT cytotoxicity assay, MOLT-3", "format": "cell-based", "conditions": "Homo sapiens, MOLT-3, Table 4, OH substituted, 24–36 hours", "experimental": "as §1, §2, §3, §4"}, "[3]": {"test_system": "BT20 human breast cancer cells", "experiment": "MTT cytotoxicity assay, BT20", "format": "cell-based", "conditions": "Homo sapiens, BT-20, Table 4, OH substituted, 24–36 hours", "experimental": "as §1, §2, §3, §4"}, "[4]": {"test_system": "U373 human brain tumor cells", "experiment": "MTT cytotoxicity assay, U373", "format": "cell-based", "conditions": "Homo sapiens, U373 MG, Table 4, OH substituted, 24–36 hours", "experimental": "as §1, §2, §3, §4"}, "[5]": {"experiment": "Single bolus dose toxicity in mice", "format": "in vivo", "conditions": "mouse, in vivo, ip", "experimental": "(§5) HI-P131 was not toxic to mice at intraperitoneal single bolus doses ranging from 0.5 mg/kg to 250 mg/kg. […] Thus, the maximum tolerated dose (MlD) of HI-P131 was not reached at 250 mg/kg. We next examined the pharmacokinetic features of HI-P131 in mice. A two-compartment pharmacokinetic model was fit to the pharmacokinetics data obtained following the intravenous (i.v.) or intraperitoneal (i.p.) administration of a single non-toxic 12.5 mg/kg bolus dose of HI-P131."}, "mice": {"test_system": "mice", "experiment": "Single bolus dose toxicity in mice", "format": "in vivo", "experimental": "as §5"}, "[6]": {"experiment": "Pharmacokinetic study in mice", "format": "in vivo", "conditions": "mouse, plasma, iv, single 12.5 mg/kg bolus, two-compartment model, read-out: Estimated maximum plasma concentration (Cmax)", "experimental": "In pharmacokinetic studies, mice were injected either intravenously (i.v.) via the tail vein or intraperitoneally (i.p.) with a bolus dose of 300 μg/mouse (˜12.5 mg/kg=34 μmols/kg) of HI-P131. Blood samples were obtained from the ocular venous plexus by retroorbital venupuncture prior to and at 3 minutes, 5 minutes, 10 minutes, 15 minutes, 30 minutes, 45 minutes and 1 hour, 2 hours, 4 hours, and 8 hours after administration of HI-P 131. All collected blood samples were heparinized and centrifuged at 7,000 xg for 10 minutes in a microcentrifuge to obtain plasma. The plasma samples were stored at −20° C. until analysis. Aliquots of plasma were used for extraction and HPLC analysis. […] The area under the concentration time curve (AUC) was calculated by the trapezoidal rule between first (0 h) and last sampling time plus C/k, where C is the concentration of last sampling and k is the elimination rate constant. Systemic clearance (CL) was determined by dividing the dose by the AUC. The apparent volume of distribution at steady-state was calculated using the following equation, Vss=Dose·AUMC/(AUC)^2. […]\nA highly sensitive quantitative HPLC detection method (Chen et al., 1998, J. Chromatography B (Biomedical sciences), in press) was used to determine the pharmocokinetics of HI-P131. […]"}}}
{"compound": "COc1cc2ncnc(Nc3ccc(O)cc3)c2cc1OC", "note": "[HI-P131, 4-(4′-Hydroxylphenyl)-amino-6,7-dimethoxyquinazoline]", "values": [{"measurement": "IC50", "setting": "[1]", "value": 32.1, "unit": "µM"}, {"measurement": "IC50", "setting": "[2]", "value": 38.6, "unit": "µM"}, {"measurement": "IC50", "setting": "[3]", "value": "> 250", "unit": "µM"}, {"measurement": "IC50", "setting": "[4]", "value": "> 250", "unit": "µM"}, {"measurement": "MTD at 30 day", "setting": "[5]", "value": "> 250", "unit": "mg/kg"}, {"measurement": "Side effects or death of toxicity", "setting": "mice; 50 mice, 30 day observation period", "value": "None of the 50 mice treated with HI-P131 experienced side effects or died of toxicity"}, {"measurement": "Histopathologic lesions in organs", "setting": "mice; mouse, in vivo", "value": "No histopathologic lesions"}, {"measurement": "Toxicity to mice", "setting": "mice; mouse, in vivo", "value": "not toxic"}, {"measurement": "Cmax", "setting": "[6]", "value": 85.6, "unit": "µM"}]}
